Data published in publication PMC5344255, “Design, Synthesis and Biochemical Evaluation of Novel Selective Estrogen Receptor Ligand Conjugates Incorporating an Endoxifen-Combretastatin Hybrid Scaffold” (Biomedicines, 2016).
Where “and” joins values, the source holds several entries; their conditions need not be identical. Identical values can stand only once.

Columns and labels:
[1] = test system: MCF-7 human breast cancer cells; assay: MTT assay for antiproliferative effects in MCF-7; type: cell-based; settings: Homo sapiens, MCF7, MCF-7, MTT assay
Method: (§1) The human breast carcinoma cell line, MCF-7, was purchased from the European Collection of Animal Cell Cultures (ECACC). The cells were maintained in MCF-7 complete medium; consisting of Eagle’s Minimum Essential Medium (MEM) supplemented with 10% (v/v) Foetal Bovine Serum (FBS), 2 mM L-glutamine, 100 μg/mL penicillin/streptomycin and 1% (v/v) non-essential amino acids. Cell cultures were maintained at 37 °C under a humidified atmosphere of 5% CO2/95% O2. The human breast carcinoma cell line, MDA, was purchased from the European Collection of Animal Cell Cultures (ECACC). The cells were maintained in MDA complete medium; consisting of Dulbecco’s Modified Eagle’s Medium (D-MEM) supplemented with 10% (v/v) Foetal Bovine Serum (FBS), 2 mM L-glutamine, 100 μg/mL penicillin/streptomycin. Cell cultures were maintained at 37 °C under a humidified atmosphere of 5% CO2/95% O2. The MTT assay was performed according to the reported protocol. The tetrazolium salt, 3-(4,5-dimethylthiazol-2-yl)-2,5-diphenyltetrazolium bromide (MTT) is taken up only by metabolically active cells and cleaved to form a formazan dye by mitochondrial dehydrogenases. Assays where repeated in three experiments performed in triplicate (unless otherwise stated) and reported results represent the mean value ± standard error mean. Graphs of percentage cell viability versus concentration of the subject compound were processed using PRISM [31].

[2] = test system: MCF-7 human breast cancer cells; assay: Lactate dehydrogenase (LDH) cytotoxicity assay in MCF-7; type: cell-based; settings: % cell lysis at 10 µM
Method: (§2) In this assay, the release of cytoplasmic lactate dehydrogenase (LDH) is used as a measure of cell lysis. MCF-7 and MDA-MB-231 cells were seeded at a density of 1 × 10^4 cells/well in a 96-well plate and incubated for 24 h. The cells were then dosed with 2 μL volumes of the test compounds, over the concentration range 1 nM–50 μM. Cytotoxicity was determined using the CytoTox 96 nonradioactive cytotoxicity assay (Promega, Madison, WI, USA) following the manufacturer’s protocol.

[3] = test system: MDA-MB-231 human breast cancer cells; assay: MTT assay for antiproliferative effects in MDA-MB-231; type: cell-based; settings: MDA-MB-231, MTT assay
Method: as §1, with “Cell cultures were maintained at 37 °C under a humidified atmosphere of 5% CO2/95% O2.” left out, “Assays where repeated in three experiments performed in triplicate (unless otherwise stated) and reported results represent the mean value ± standard error mean.” left out

[4] = test system: MDA-MB-231 human breast cancer cells; assay: Lactate dehydrogenase (LDH) cytotoxicity assay in MDA-MB-231; type: cell-based; settings: % cell lysis at 10 μM
Method: as §2

[5] = HPLC stability study in phosphate buffer; type: physicochemical; settings: pH values in the range 4–9
Method: Analytical high-performance liquid chromatography (HPLC) stability studies were performed using a Symmetry® column (C18, 5 µm, 4.6 × 150 mm), a Waters 2487 Dual Wavelength Absorbance detector, a Waters 1525 binary HPLC pump and a Waters 717 plus Autosampler (Waters Corporation, Milford, MA, USA). Samples were detected at wavelength of 254 nm. All samples were analysed using acetonitrile (80%):water (20%) as the mobile phase over 10 min and a flow rate of 1 mL/min. Stock solutions are prepared by dissolving 5mg of compound in 10 mL of mobile phase. Phosphate buffers at the desired pH values (4, 7.4, and 9) were prepared in accordance with the British Pharmacopoeia monograph 2015. 30 µL of stock solution was diluted with 1 mL of appropriate buffer, shaken and injected immediately. Samples were withdrawn and analysed at time intervals of t = 0 min, 5 min, 30 min, 60 min, 90 min, 120 min, 24 h and 48 h.

human ERα = target: T1, human ERα (Homo sapiens, UniProt P03372); assay: Estrogen receptor fluorescence polarisation competitive binding assay, ERα; settings: for IC50: competitive binding, fluoromone ligand; for Selectivity (α/β): ratio of ER binding IC50 values
T1 construct: purchased Invitrogen; host or cells: baculovirus expression system
T1 sequence (P03372 1-595): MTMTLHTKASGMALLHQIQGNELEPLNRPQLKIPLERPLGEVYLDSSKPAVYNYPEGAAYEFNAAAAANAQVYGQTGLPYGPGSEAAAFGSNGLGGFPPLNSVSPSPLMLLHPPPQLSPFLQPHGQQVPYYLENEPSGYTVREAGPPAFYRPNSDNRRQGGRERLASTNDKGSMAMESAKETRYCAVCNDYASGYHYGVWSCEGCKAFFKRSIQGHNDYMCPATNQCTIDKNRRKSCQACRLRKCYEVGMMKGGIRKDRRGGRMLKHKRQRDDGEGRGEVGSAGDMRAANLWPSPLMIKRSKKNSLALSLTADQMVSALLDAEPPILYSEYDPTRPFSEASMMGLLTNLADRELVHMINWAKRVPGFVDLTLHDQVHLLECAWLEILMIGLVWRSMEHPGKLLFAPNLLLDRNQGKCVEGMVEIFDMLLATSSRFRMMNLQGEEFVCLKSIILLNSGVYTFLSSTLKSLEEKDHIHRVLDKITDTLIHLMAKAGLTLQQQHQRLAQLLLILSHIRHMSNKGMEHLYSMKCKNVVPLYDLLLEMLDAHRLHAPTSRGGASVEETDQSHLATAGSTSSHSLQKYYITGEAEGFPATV

human ERβ = target: T2, human ERβ (Homo sapiens, UniProt Q92731); assay: Estrogen receptor fluorescence polarisation competitive binding assay, ERβ; settings: fluoromone ligand
T2 construct: purchased Invitrogen; host or cells: baculovirus expression system

[6] = mean of at least three experiments in triplicate

T2 sequence (Q92731 whole entry): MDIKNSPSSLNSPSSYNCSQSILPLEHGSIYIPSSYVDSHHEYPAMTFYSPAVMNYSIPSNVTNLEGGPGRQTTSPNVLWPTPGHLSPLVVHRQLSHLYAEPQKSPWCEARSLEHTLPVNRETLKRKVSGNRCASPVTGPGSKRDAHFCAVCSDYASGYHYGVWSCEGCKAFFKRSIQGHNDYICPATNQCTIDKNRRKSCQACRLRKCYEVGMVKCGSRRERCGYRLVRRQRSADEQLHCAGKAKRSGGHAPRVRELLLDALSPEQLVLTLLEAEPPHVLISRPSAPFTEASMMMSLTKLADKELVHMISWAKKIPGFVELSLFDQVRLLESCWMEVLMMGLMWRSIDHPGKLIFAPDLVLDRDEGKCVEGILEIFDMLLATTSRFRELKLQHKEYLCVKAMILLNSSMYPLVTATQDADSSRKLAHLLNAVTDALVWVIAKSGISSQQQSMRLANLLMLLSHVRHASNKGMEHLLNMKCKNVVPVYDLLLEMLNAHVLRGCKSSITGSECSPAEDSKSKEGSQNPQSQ

| IC50 [1, 6] [nM] | IC50 [3] [nM] | half-life at 14.6 µg/mL [5] [h] | IC50 ([1]; values in nM) [nM] | IC50 (human ERα) | Selectivity (α/β) (human ERα) | IC50 (human ERβ) | Structure (SMILES) | % Cell Death at 10 μM [2] [%] | % Cell Death at 10 μM [4] [%] |
| --- | --- | --- | --- | --- | --- | --- | --- | --- | --- |
| 41 | 4090 | > 24 | – | – | – | – | CCC(=C(c1ccc(O)cc1)c1ccc(OCCN(C)C(=O)/C(=C/c2cc(OC)c(OC)c(OC)c2)c2ccc(OC)cc2)cc1)c1ccc(O)cc1 (mixture of isomers) [Compound 32, (E)-N-(2-{4-[(E/Z)-1,2-Bis-(4-hydroxyphenyl)but-1-enyl]phenoxy}ethyl)-2-(4-methoxyphenyl)-N-methyl-3-(3,4,5-trimethoxyphenyl)acrylamide] | 16 | 0 |
| 29 | – | – | 0.029 | 47 nM | 2.52 | 118 nM | CCC(=C(c1ccc(O)cc1)c1ccc(OCCNC)cc1)c1ccccc1 [Compound 11, 4-{1-[4-(2-Methylaminoethoxy)phenyl]-2-phenylbut-1-enyl}phenol, reference compound] | 23 | – |
| 28 | – | – | – | 44.1 nM and 44 nM | 0.90 | 39.7 nM and 40 nM | CCC(=C(c1ccc(O)cc1)c1ccc(OCCNC)cc1)c1ccc(O)cc1 [Compound 12, 4-(1-(4-(2-(Methylamino)ethoxy)phenyl)-2-(4-hydroxyphenyl)but-1-enyl)phenol] | 11 | – |
